Target: T1, Peroxisome proliferator-activated receptor gamma (Homo sapiens, UniProt P37231)
T1 sequence (P37231 whole entry): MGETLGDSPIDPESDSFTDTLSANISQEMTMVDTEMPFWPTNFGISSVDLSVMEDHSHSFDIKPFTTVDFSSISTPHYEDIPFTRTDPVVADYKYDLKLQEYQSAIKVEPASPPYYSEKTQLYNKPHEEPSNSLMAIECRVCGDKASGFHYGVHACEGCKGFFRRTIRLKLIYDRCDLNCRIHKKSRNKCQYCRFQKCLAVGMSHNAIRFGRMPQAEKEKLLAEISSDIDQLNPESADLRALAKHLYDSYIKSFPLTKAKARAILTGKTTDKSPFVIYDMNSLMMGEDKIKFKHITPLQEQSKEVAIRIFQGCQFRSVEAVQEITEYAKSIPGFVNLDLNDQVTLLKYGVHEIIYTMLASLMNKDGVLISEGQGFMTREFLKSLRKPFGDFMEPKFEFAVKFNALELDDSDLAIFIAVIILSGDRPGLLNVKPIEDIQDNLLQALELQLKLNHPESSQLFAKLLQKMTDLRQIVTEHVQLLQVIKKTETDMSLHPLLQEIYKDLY
Assay: PPARg ligand-binding domain binders, dose response, PPARg partial agonist project, biochemical, fluorescence polarization, PolarScreen (AID 504453)

| Structure (SMILES) | IC50 [µM] |
| --- | --- |
| Cc1ccc2nc(N3C(=O)C(=O)C(C(=O)c4ccc(C)o4)C3c3ccco3)sc2c1 (centres undefined) | 22 |
| COc1ccc2nc(N3C(=O)C(=O)C(C(=O)c4ccco4)C3c3ccc(C)o3)sc2c1 (centres undefined) | 5 |
| CCOc1ccc2nc(N3C(=O)C(=O)C(C(=O)c4ccco4)C3c3ccco3)sc2c1 (centres undefined) [1-(6-ethoxy-1,3-benzothiazol-2-yl)-2-(2-furanyl)-3-[2-furanyl(oxo)methyl]-4-hydroxy-2H-pyrrol-5-one] | 3 |
| Cc1ccc2nc(N3C(=O)C(=O)C(C(=O)c4ccco4)C3c3ccc(C)o3)sc2c1 (centres undefined) [3-[2-furanyl(oxo)methyl]-4-hydroxy-1-(6-methyl-1,3-benzothiazol-2-yl)-2-(5-methyl-2-furanyl)-2H-pyrrol-5-one;oxalic acid] | 30 |
